Drawing on ChEMBL document CHEMBL1136220, “Synthesis and cytotoxic activity of A-ring modified betulinic acid derivatives” (2003), this text covers EC50 for 20 molecules.

Assay type in all cases: functional
One assay concerns B16-F10. Description: Cytotoxic activity towards B16-F10 cells. To be noted: Mus musculus, read-out: ED50 (the source's name).
A further assay deals with SK-MEL-2. Put plainly: Cytotoxic activity towards M2 cells (SK-MEL-2). To be noted: Homo sapiens, read-out: ED50 (the source's name).
A further assay has as its system A549. Description: Cytotoxic activity towards A-549 cells. To be noted: Homo sapiens, read-out: ED50 (the source's name).

Structures are written as SMILES. Values after ≈ are worked out from the molar mass of the structure shown.

Regarding `COC(=O)[C@]12CC[C@@H](C(C)C)C1C1CCC3[C@]4(C)C(CC[C@@]3(C)[C@]1(C)CC2)C(C)(C)C(=O)[C@@H]1O[C@@H]14` (stereo not given in full), the EC50 in the assay on B16-F10, in the assay with SK-MEL-2 and in the assay on A549 was > 30 µg/mL throughout.
For the molecule `CC(C)[C@@H]1CC[C@]2(C(=O)O)CC[C@]3(C)C(CC[C@@H]4[C@@]5(C)C=CC(=O)C(C)(C)C5CC[C@]43C)C12` (stereo not given in full), the EC50 in the assay with B16-F10 came to 1.75 µg/mL (≈ 3.85 µM); with SK-MEL-2 it was 2.29 µg/mL (≈ 5.04 µM); in the assay with A549 it was 2.89 µg/mL (≈ 6.36 µM).
Turning to `CC(C)[C@@H]1CC[C@]2(C(=O)O)CC[C@]3(C)C(CC[C@@H]4[C@@]5(C)CC(C=O)=C(O)C(C)(C)C5CC[C@]43C)C12` (stereo not given in full), the EC50 in the assay on B16-F10 was 1.66 µg/mL (≈ 3.42 µM); in the assay with SK-MEL-2, 3.76 µg/mL (≈ 7.76 µM); in the assay with A549 it was 2.2 µg/mL (≈ 4.54 µM).
The like results for `COC(=O)[C@]12CC[C@@H](C(C)C)C1C1CC[C@@H]3[C@@]4(C)C=CC(=O)C(C)(C)C4CC[C@@]3(C)[C@]1(C)CC2` (stereo not given in full) were, in that order, > 30 µg/mL, > 30 µg/mL and > 30 µg/mL.
The like results for `C=C(C)[C@@H]1CC[C@]2(C(=O)OC)CC[C@]3(C)C(CC[C@@H]4[C@@]5(C)CC(C=O)=C(O)C(C)(C)C5CC[C@]43C)C12` (stereo not given in full) were, in that order, > 30 µg/mL, > 30 µg/mL and > 30 µg/mL.
In the same order, the values of `C=C(C)[C@@H]1CC[C@]2(C(=O)OC)CC[C@]3(C)C(CC[C@@H]4[C@@]5(C)C=C(C#N)C(=O)C(C)(C)C5CC[C@]43C)C12` (stereo not given in full) are 3.57 µg/mL (≈ 7.26 µM), 2.12 µg/mL (≈ 4.31 µM) and 4.55 µg/mL (≈ 9.25 µM).
Consider `COC(=O)[C@]12CC[C@@H](C(C)C)C1C1CC[C@@H]3[C@@]4(C)Cc5cnoc5C(C)(C)C4CC[C@@]3(C)[C@]1(C)CC2` (stereo not given in full), for which the EC50 in the assay on B16-F10, with SK-MEL-2 and with A549 was > 30 µg/mL throughout.
In the case of `C=C(C)[C@@H]1CC[C@]2(C(=O)O)CC[C@]3(C)C(CC[C@@H]4[C@@]5(C)CC(C=O)=C(O)C(C)(C)C5CC[C@]43C)C12` (stereo not given in full), the EC50 is > 30 µg/mL in the assay on B16-F10, > 30 µg/mL in the assay with SK-MEL-2 and 2.76 µg/mL (≈ 5.72 µM) with A549.
For the molecule `CC(C)[C@@H]1CC[C@]2(C(=O)O)CC[C@]3(C)C(CC[C@@H]4[C@@]5(C)Cc6cnoc6C(C)(C)C5CC[C@]43C)C12` (stereo not given in full), the EC50 turned out to be 1.57 µg/mL (≈ 3.26 µM) with B16-F10, 1.15 µg/mL (≈ 2.39 µM) in the assay on SK-MEL-2 and 2.7 µg/mL (≈ 5.6 µM) in the assay on A549.
In the same order, the values of `COC(=O)[C@]12CC[C@@H](C(C)C)C1C1CC[C@@H]3[C@@]4(C)C=C(C=O)C(=O)C(C)(C)C4CC[C@@]3(C)[C@]1(C)CC2` (stereo not given in full) are 0.29 µg/mL (≈ 0.584 µM), 0.73 µg/mL (≈ 1.47 µM) and 0.31 µg/mL (≈ 0.624 µM).
With `CC(C)[C@@H]1CC[C@]2(C(=O)O)CC[C@]3(C)C(CC[C@@H]4[C@@]5(C)C=C(Cl)C(=O)C(C)(C)C5CC[C@]43C)C12` (stereo not given in full), the EC50 with B16-F10 stood at 1.55 µg/mL (≈ 3.17 µM); with SK-MEL-2, 0.13 µg/mL (≈ 0.266 µM); in the assay with A549 it was 1.01 µg/mL (≈ 2.06 µM).
In the case of `CC(C)[C@@H]1CC[C@]2(C(=O)O)CC[C@]3(C)C(CC[C@@H]4[C@@]5(C)C=C(C#N)C(=O)C(C)(C)C5CC[C@]43C)C12` (stereo not given in full), the EC50 in the assay with B16-F10 turned out to be 1.43 µg/mL (≈ 2.98 µM); in the assay with SK-MEL-2, 0.81 µg/mL (≈ 1.69 µM); in the assay on A549 it was 1.32 µg/mL (≈ 2.75 µM).
In the same order, the values of `COC(=O)[C@]12CC[C@@H](C(C)C)C1C1CC[C@@H]3[C@@]4(C)C=C(OC)C(=O)C(C)(C)C4CC[C@@]3(C)[C@]1(C)CC2` (stereo not given in full) are > 30 µg/mL, > 30 µg/mL and > 30 µg/mL.
Consider `COC(=O)[C@]12CC[C@@H](C(C)C)C1C1CC[C@@H]3[C@@]4(C)C=C(C#N)C(=O)C(C)(C)C4CC[C@@]3(C)[C@]1(C)CC2` (stereo not given in full), for which the EC50 amounted to 0.8 µg/mL (≈ 1.62 µM) in the assay with B16-F10, 1.25 µg/mL (≈ 2.53 µM) in the assay with SK-MEL-2 and 13 µg/mL (≈ 26.3 µM) in the assay with A549.
In the same order, the values of `C=C(C)[C@@H]1CC[C@]2(C(=O)O)CC[C@]3(C)C(CC[C@@H]4[C@@]5(C)Cc6cnoc6C(C)(C)C5CC[C@]43C)C12` (stereo not given in full) are 3.11 µg/mL (≈ 6.48 µM), 16.6 µg/mL (≈ 34.6 µM) and 1.54 µg/mL (≈ 3.21 µM).
Consider `C=C(C)[C@@H]1CC[C@]2(C(=O)OC)CC[C@]3(C)C(CC[C@@H]4[C@@]5(C)Cc6cnoc6C(C)(C)C5CC[C@]43C)C12` (stereo not given in full), for which the EC50 with B16-F10, in the assay with SK-MEL-2 and with A549 was > 30 µg/mL throughout.
Take `CC(C)[C@@H]1CC[C@]2(C(=O)O)CC[C@]3(C)C(CC[C@@H]4[C@@]5(C)C=C(C=O)C(=O)C(C)(C)C5CC[C@]43C)C12` (stereo not given in full): the EC50 stood at 0.3 µg/mL (≈ 0.621 µM) in the assay with B16-F10, 0.26 µg/mL (≈ 0.539 µM) in the assay with SK-MEL-2 and 0.17 µg/mL (≈ 0.352 µM) in the assay on A549.
The like results for `COC(=O)[C@]12CC[C@@H](C(C)C)C1C1CC[C@@H]3[C@@]4(C)CC(C=O)=C(O)C(C)(C)C4CC[C@@]3(C)[C@]1(C)CC2` (stereo not given in full) were, in that order, > 30 µg/mL, > 30 µg/mL and > 30 µg/mL.
In the same order, the values of `COC(=O)[C@]12CC[C@@H](C(C)C)C1C1CC[C@@H]3[C@@]4(C)C=C(Cl)C(=O)C(C)(C)C4CC[C@@]3(C)[C@]1(C)CC2` (stereo not given in full) are > 30 µg/mL, > 30 µg/mL and > 30 µg/mL.
Regarding `C=C(C)[C@@H]1CC[C@]2(C(=O)O)CC[C@]3(C)[C@H](CC[C@@H]4[C@@]5(C)CC[C@H](O)C(C)(C)[C@@H]5CC[C@]43C)[C@@H]12` [BETULINIC ACID], the EC50 in the assay on B16-F10 came out at 4.98 µg/mL (≈ 10.9 µM); with SK-MEL-2, 7.62 µg/mL (≈ 16.7 µM); with A549 it was 7.7 µg/mL (≈ 16.9 µM).
